# Laboratory results from patent US20100197688A1, “EPHA4 RTK INHIBITORS FOR TREATMENT OF NEUROLOGICAL AND NEURODEGENERATIVE DISORDERS AND CANCER” (priority 2008, published 2010).
# Experiments:
# [1] = target: T1, P60c-src (Homo sapiens, UniProt P12931); test: Src kinase counterscreen enzymatic assay (TR-FRET); format: biochemical; settings: 0.5 μM ATP
# T1 construct: purchased Upstate biotechnology, USA
# Protocol: (§1) Counterscreen assays were developed for the tyrosine kinases src kinase and jak2 kinase, with a format essentially identical to the EphA4 kinase TR-FRET format. Jak2 (50 ng) (Cell Signaling, USA) was incubated with 0.5 μM of biotinylated FLT3 peptide (Cell Signaling, USA) in presence of 5 μM of ATP (Sigma). P60c-src (10 U/well) (Upstate biotechnology, USA) was incubated with biotinylated Poly(Glu Tyr) peptide (100 nM) in presence of 0.5 μM of ATP. The enzymatic reaction was stopped after 60 min by adding 15 mM EDTA. The detection reaction and energy transfer signal measurements were similar to those previously described. Results were expressed as ratios of the absorbencies 665/615.
# (§2) Compounds were titrated in duplicate at 11 points concentration starting at 100 μM with a 3 fold increment. Compounds were diluted in DMSO. […] Percentage inhibition for each compound was then calculated based on the value of the 100% inhibition. Concentration-response curves were represented and the concentrations for 50% inhibition (IC50) were calculated.
# [2] = system: Jak2/Stat3 activation with Interferon Gamma in MCF-7 cells; test: Cell-based counterscreen assay (IFN-γ activated Jak2/Stat3, pGAS-luciferase); settings: for IC50: Homo sapiens, MCF7, inflexion point, read-out: Cell Counter Screen Assay IP
# Description: EphA4 cell-based assay was based on the signaling pathway of EphA4, which involves activation of the tyrosine kinase Jak2 and the transcriptional activator Stat3. However, pharmacological agents could also interfere downstream of EphA4 signaling and particularly on Jak2 activity. To counterscreen this potential effect unrelated to EphA4 activity, a new assay was designed based on direct activation of the tyrosine kinase Jak2 and the transcriptional activator Stat3 with Interferon Gamma (IFN-γ).
# MCF-7 cells were maintained in MEM growth media, supplemented with 10% fetal bovine serum, 2 mM L-glutamine, 1.5 g/L sodium bicarbonate, 0.1 mM non-essential amino acids, 1 mM sodium pyruvate, and 0.01 mg/ml bovine insulin. For the luciferase assay MCF-7 cells were co-transfected the next day with […] of pGAS-Luc and […] of empty vector pRL-CMV, which encoded the Renilla luciferase, and was included in the transfection mix for normalization. Six hours after transfection the cells were trypsinized and plated at 4.105 cells/ml into 96 well Black/Clear Poly-D-Lysine coated plates (Biocoat) that had been pre-spotted with compounds. […] Cells were lysed the next day using the Reporter Lysis Buffer (Promega), and the luciferase activity was measured using the Dual Luciferase Assay (Promega) following the manufacturer's directions. The Firefly and Renilla luminescences are read consecutively on a Top-Count (Perkin-Elmer).
# Results are expressed as a ratio of the two luminsescence: Firefly Luciferase/Renilla Luciferase. Cell viability was assessed on parallel plates using the Cell Glo Assay (Promega) following the manufacturer's directions. Results are expressed as percent of cell death in comparison with vehicle-treated wells.
# (§3) Compounds were titrated in duplicate at 10 points concentration starting at 100 μM with a 1.5 fold increment. Concentration-response curves were represented and the concentrations at the inflexion point (IP) were calculated. The maximum effect was given by the maximum percent inhibition calculated from the results of the control wells (containing only DMSO).
# [3] = target: T2, human form of EphA4 receptor (Homo sapiens, UniProt P54764); test: EphA4 cell-based assay (pGAS-luciferase in EphA4-transfected CHO-K1 cells); settings: for IC50: inflexion point, read-out: EphA4 Cell Assay IP; for EphA4 Cell Assay maximum percent inhibition: value in parentheses
# T2 construct: expressed in transfected cells; host or cells: CHO-K1, transiently transfected with EphA4 in pCMV6-XL5
# Description: A cell-based assay was used to measure the potency of the compounds on the human form of EphA4 receptor over-expressed in Chinese Hamster Ovary cell line, CHO-K1 cells (Merck Collection). The cell assay was based on a novel signaling pathway of EphA4, which involves activation of the tyrosine kinase Jak2 and the transcriptional activator Stat3 (39).
# Reagents: The expression constructs of EphA4 were subcloned into the expression vector pCMV6-XL5 (Origene, Md., USA) (clone from Merck Kinase Library). The luciferase construct that was linked to the Stat1-responsive enhancer (pGAS-Luc) was bought from Stratagene (USA). The renilla construct that linked to an empty vector CMV was bought from Promega (USA).
# Transfection and Luciferase Assay: CHO-K1 cells were plated in T-175 cell culture bottle in DMEM medium supplemented with 10% fetal bovine serum, 1 mM sodium pyruvate, 2 mM L-glutamine and 1.5 g/L sodium bicarbonate. When cell reached 70-80% confluence, transfections were performed in T-175 culture flasks, using Lipofectamine 2000™ transfection reagent (Invitrogen) according to the manufacturer's directions. For the luciferase assay CHO-K1 cells were co-transfected the next day with […] of pGAS-Luc, 70 mg of EphA4, and 5 mg of empty vector pRL-CMV, which encoded the Renilla luciferase, and was included in the transfection mix for normalization. Six hours after transfection the cells were trypsinized and plated at 4.105 cells/ml into 96 well Black/Clear Poly-D-Lysine coated plates (Biocoat) that had been pre-spotted with compounds. Cells were lysed the next day using the Reporter Lysis Buffer (Promega), and the luciferase activity was measured using the Dual Luciferase Assay (Promega) following the manufacturer's directions. The Firefly and Renilla luminescences are read consecutively on a Top-Count (Perkin-Elmer). Results are expressed as a ratio of the two luminsescence: Firefly Luciferase/Renilla Luciferase. Cell viability was assessed on parallel plates using the Cell Glo Assay (Promega) following the manufacturer's directions. Results are expressed as percent of cell death in comparison with vehicle-treated wells.
# as §3
# [4] = system: C2C12 cells; test: Proliferation assay (cell confluence), C2C12 cells; format: cell-based, mouse; settings: at 5 μM
# Protocol: C2C12 were plated at 15,000 cells per well and then differentiated into myotubes with DMEM supplemented with 2% horse serum for 3 days in 24 well ImageLock™ plate (Essen Instruments, Mich., USA). Primary Rat cortical astrocytes were plated at 3.105 cells/ml onto 24 well ImageLock™ plate.
# Cells were placed into the IncuCyte™ at 37° C. and 95% CO2/5% O2, for two to three days. During this time, the cells within each well were repeatedly imaged at fixed time intervals (every three hours). The IncuCyte™ system automatically monitored the proliferation using the percentage of confluence. Percent of confluence can be graphed over time to evaluate the characteristics of proliferation in the presence of pharmacological agents.
# […] The percentage of reduction of cell confluence was calculated from the AUCs in comparison with the AUCs of the control wells (1% DMSO).
# [5] = target: T3, Jak2 (Homo sapiens, UniProt O60674); test: Jak2 kinase counterscreen enzymatic assay (TR-FRET); format: biochemical; settings: 5 μM ATP
# T3 construct: purchased Cell Signaling, USA
# Protocol: as §1, §2
# T2 sequence (P54764 20-986): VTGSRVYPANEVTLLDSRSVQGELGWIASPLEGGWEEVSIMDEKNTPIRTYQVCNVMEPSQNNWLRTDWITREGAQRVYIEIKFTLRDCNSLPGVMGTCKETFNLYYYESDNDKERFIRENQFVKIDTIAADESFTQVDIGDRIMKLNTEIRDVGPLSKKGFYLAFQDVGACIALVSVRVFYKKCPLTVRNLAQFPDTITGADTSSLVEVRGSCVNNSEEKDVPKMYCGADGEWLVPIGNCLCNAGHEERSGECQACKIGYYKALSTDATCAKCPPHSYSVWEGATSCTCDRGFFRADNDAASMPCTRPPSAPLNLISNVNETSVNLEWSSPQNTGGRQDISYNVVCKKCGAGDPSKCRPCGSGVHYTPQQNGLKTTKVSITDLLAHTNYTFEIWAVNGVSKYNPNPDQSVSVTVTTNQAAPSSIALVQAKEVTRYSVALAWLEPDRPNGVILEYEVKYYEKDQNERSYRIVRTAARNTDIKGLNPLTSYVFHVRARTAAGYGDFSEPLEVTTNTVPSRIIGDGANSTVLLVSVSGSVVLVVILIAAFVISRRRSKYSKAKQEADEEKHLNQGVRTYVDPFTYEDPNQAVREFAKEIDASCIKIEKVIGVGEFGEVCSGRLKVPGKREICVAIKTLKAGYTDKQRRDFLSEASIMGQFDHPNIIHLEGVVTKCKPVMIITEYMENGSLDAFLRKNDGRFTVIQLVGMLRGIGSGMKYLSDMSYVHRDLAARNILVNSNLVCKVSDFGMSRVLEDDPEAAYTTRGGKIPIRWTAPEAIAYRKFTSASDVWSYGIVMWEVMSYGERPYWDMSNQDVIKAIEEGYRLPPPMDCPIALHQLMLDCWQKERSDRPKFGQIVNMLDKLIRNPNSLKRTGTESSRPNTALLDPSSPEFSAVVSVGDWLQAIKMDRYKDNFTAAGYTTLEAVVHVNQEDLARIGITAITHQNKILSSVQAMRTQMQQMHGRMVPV
# T1 sequence (P12931 whole entry): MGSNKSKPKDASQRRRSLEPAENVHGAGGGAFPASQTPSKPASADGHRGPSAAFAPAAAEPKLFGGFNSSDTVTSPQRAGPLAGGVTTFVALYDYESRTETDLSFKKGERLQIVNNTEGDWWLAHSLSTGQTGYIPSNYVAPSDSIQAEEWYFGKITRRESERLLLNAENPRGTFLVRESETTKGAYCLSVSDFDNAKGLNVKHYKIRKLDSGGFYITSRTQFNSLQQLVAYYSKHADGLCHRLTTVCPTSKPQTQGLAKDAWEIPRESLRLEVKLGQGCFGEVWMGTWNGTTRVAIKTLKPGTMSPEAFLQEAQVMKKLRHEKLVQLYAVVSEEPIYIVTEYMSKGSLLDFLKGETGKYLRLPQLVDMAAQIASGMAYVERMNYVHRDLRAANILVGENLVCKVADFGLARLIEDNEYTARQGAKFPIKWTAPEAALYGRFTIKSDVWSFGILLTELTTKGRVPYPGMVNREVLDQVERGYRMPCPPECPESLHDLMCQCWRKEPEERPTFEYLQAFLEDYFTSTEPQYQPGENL
# T3 sequence (O60674 whole entry, species assumed): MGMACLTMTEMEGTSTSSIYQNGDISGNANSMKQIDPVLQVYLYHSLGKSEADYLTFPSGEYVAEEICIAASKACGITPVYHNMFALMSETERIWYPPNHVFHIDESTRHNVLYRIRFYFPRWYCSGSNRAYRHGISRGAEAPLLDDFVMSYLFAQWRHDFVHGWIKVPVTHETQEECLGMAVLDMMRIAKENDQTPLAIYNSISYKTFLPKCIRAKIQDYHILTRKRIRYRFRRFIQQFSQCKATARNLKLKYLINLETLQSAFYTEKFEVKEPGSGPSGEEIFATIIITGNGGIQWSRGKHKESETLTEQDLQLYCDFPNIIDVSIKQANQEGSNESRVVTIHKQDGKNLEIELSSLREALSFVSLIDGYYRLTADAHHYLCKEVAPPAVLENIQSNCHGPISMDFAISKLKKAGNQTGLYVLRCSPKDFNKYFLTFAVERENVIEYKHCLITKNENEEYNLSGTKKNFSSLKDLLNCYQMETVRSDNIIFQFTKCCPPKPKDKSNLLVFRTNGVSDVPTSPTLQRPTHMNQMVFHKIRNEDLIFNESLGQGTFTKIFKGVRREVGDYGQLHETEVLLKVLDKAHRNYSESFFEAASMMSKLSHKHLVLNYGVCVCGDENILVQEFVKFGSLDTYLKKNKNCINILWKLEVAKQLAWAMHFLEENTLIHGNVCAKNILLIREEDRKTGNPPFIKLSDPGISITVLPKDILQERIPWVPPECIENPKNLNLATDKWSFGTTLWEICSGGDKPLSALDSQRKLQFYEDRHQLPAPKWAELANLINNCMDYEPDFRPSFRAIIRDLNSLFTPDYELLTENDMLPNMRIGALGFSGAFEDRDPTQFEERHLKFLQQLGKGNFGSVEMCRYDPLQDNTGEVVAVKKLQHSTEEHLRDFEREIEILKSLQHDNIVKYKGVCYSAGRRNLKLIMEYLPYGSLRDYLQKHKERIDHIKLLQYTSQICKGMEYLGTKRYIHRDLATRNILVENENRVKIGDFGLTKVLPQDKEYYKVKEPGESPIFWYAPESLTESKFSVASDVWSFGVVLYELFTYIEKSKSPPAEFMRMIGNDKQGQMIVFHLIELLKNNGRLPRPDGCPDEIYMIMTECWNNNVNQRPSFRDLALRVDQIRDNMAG
SMILES,IC50 [1],IC50 [2],IC50 [3],EphA4 Cell Assay maximum percent inhibition [3],% Reduction Confluence C2C12 Cells [4],IC50 [5],Cell Counter Screen Assay max inhibition in % ([2]; value in parentheses)
Cc1ccc(NC(=O)c2cccc(C(F)(F)F)c2)cc1-c1ccc(-n2cccn2)cc1 [Example 120],> 100 µM,> 100 µM,5.6 µM,50%,33.3% at 5 μM,> 100 µM,–
Cc1ccc(NC(=O)c2cccc(C(F)(F)F)c2)cc1-c1ccc(O)c(NC=O)c1 [Example 133],> 100 µM,1.7 µM,8.3 µM,42%,17.5% at 5 μM,> 100 µM,99%
